These results are taken from PubChem BioAssay (NCI).

Among the test systems are SK-OV-3 ovarian; OVCAR-3 ovarian; CAKI-1 renal; COLO 205 colon; SK-MEL-28 melanoma; UO-31 renal; OVCAR-4 ovarian; 786-0 renal; KM12 colon; MCF7 breast.
What all share (assay): NCI-60 cell line screen, 48 h

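Each compound was tested at five concentrations against cells in 96-well plates for 48 hours. GI50 = concentration required for 50% inhibition of growth. TGI is the concentration that stops growth completely.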 Bounds are passed on as bounds.

`COc1ccccc1C1C(C(=O)O)=C(CO)Oc2cc3c(cc21)OCO3` (configuration not stated): the TGI in the experiment on SK-OV-3 ovarian, in the experiment with OVCAR-3 ovarian, in the experiment with CAKI-1 renal, with COLO 205 colon, in the experiment on SK-MEL-28 melanoma and in the experiment with UO-31 renal was > 100 µM each time.

As to `C[C@]12C=CC(=O)C=C1CC[C@H]1[C@@H]3C[C@@H](O)[C@](O)(C(=O)CO)[C@@]3(C)C[C@H](O)[C@@]12F`, the TGI in the experiment on SK-OV-3 ovarian, in the experiment with OVCAR-4 ovarian, in the experiment on OVCAR-3 ovarian, in the experiment on CAKI-1 renal, with 786-0 renal and in the experiment with KM12 colon was > 100 µM each time. Moreover, the TGI in the experiment on COLO 205 colon, with SK-MEL-28 melanoma and with UO-31 renal was > 100 µM throughout.

Turning to `N#C/C(C(=O)Nc1ccccc1)=C(/N)N1CCOCC1`, the TGI in the experiment with SK-OV-3 ovarian, in the experiment with OVCAR-3 ovarian, with CAKI-1 renal, in the experiment with 786-0 renal, in the experiment on MCF7 breast and in the experiment with KM12 colon was > 100 µM throughout. Further, the TGI with COLO 205 colon, in the experiment on SK-MEL-28 melanoma and in the experiment on UO-31 renal was > 100 µM throughout.

Consider `CC1CC=CC(O)C1` (configuration not stated), for which the TGI in the experiment on SK-OV-3 ovarian, with OVCAR-4 ovarian, in the experiment on OVCAR-3 ovarian, in the experiment on MCF7 breast, in the experiment with KM12 colon and in the experiment with COLO 205 colon was > 100 µM in each case. Moreover, the TGI in the experiment on SK-MEL-28 melanoma and in the experiment with UO-31 renal was > 100 µM throughout.

As to `CCn1c(-c2cc(OC)cc(OC)c2)nc2c1C(=O)c1ccccc1C2=O`, the TGI in the experiment with SK-OV-3 ovarian, with OVCAR-4 ovarian, in the experiment with OVCAR-3 ovarian, in the experiment on 786-0 renal, with MCF7 breast and with KM12 colon was > 100 µM throughout. Moreover, the TGI with COLO 205 colon and in the experiment on SK-MEL-28 melanoma was > 100 µM throughout.

Regarding `CC(=O)n1nc(-c2ccccc2)n(/N=C/c2ccc([N+](=O)[O-])cc2)c1=O`, the TGI with SK-OV-3 ovarian, in the experiment with OVCAR-4 ovarian, in the experiment with OVCAR-3 ovarian, with CAKI-1 renal, in the experiment with 786-0 renal and in the experiment on KM12 colon was > 100 µM in each case. Also, the TGI with COLO 205 colon, in the experiment with SK-MEL-28 melanoma and in the experiment with UO-31 renal was > 100 µM in each case.

For `CN(C)Cc1cc(C(=O)/C=C/c2ccc(Cl)cc2)cc(CN(C)C)c1O`, the TGI with OVCAR-3 ovarian was determined as 10.8 µM; in the experiment on CAKI-1 renal, 20 µM; in the experiment on 786-0 renal, 20.2 µM; in the experiment on MCF7 breast, 39.6 µM; in the experiment with KM12 colon, 19.6 µM; with COLO 205 colon, 10.7 µM. The TGI in the experiment with SK-MEL-28 melanoma was 26.4 µM; in the experiment on UO-31 renal, 19.9 µM.

Regarding `COC(=O)Cc1cc(O)c(C/C=C(\C)CC/C=C(\C)C(O)C(=O)C=C(C)C)cc1O` (configuration not stated), the TGI is 78.8 µM in the experiment on SK-OV-3 ovarian; > 100 µM with OVCAR-4 ovarian; 42.5 µM in the experiment on OVCAR-3 ovarian; > 100 µM in the experiment on 786-0 renal; 89.5 µM in the experiment on MCF7 breast; 43.2 µM in the experiment with KM12 colon. For the same compound, the TGI with COLO 205 colon came out at 57.7 µM; in the experiment on UO-31 renal, 46 µM.

As to `O=[N+]([O-])c1ccc(C=C2C(Cl)=C(Cl)C(Cl)=C2Cl)cc1`, the GI50 with SK-OV-3 ovarian was 12.1 µM; in the experiment on OVCAR-4 ovarian it was 2.42 µM; in the experiment on OVCAR-3 ovarian, 1.83 µM; in the experiment on CAKI-1 renal, 1.11 µM; in the experiment with MCF7 breast, 2.78 µM; in the experiment on COLO 205 colon, 3.2 µM. The GI50 in the experiment with SK-MEL-28 melanoma was 3.81 µM; in the experiment with UO-31 renal it was 1.47 µM. Moreover, the TGI was 29.9 µM in the experiment on SK-OV-3 ovarian; 6.1 µM in the experiment with OVCAR-4 ovarian; 3.46 µM with OVCAR-3 ovarian; 3.4 µM in the experiment on CAKI-1 renal; 10.9 µM in the experiment with MCF7 breast; > 100 µM with COLO 205 colon. The TGI in the experiment with SK-MEL-28 melanoma was determined as 74.4 µM; in the experiment on UO-31 renal, 3.16 µM.

Consider `CC(C)C1OC23CCCCC2C(C#N)(C#N)C1(C#N)C(=N)O3` (configuration not stated), for which the TGI in the experiment with SK-OV-3 ovarian is > 100 µM; with OVCAR-3 ovarian it was 59.8 µM; in the experiment with CAKI-1 renal, 22.4 µM; in the experiment with 786-0 renal, 34.4 µM; in the experiment on MCF7 breast, 36.6 µM; in the experiment on COLO 205 colon, 33.5 µM. The TGI in the experiment with SK-MEL-28 melanoma was 87.3 µM; in the experiment with UO-31 renal, > 100 µM.

For `S=C(c1c[nH]c2ccccc12)N1CCOCC1`, the TGI in the experiment on SK-OV-3 ovarian, in the experiment on OVCAR-3 ovarian, with CAKI-1 renal, in the experiment on 786-0 renal, in the experiment on MCF7 breast and in the experiment with KM12 colon was > 100 µM each time. Further, the TGI in the experiment with COLO 205 colon, in the experiment with SK-MEL-28 melanoma and with UO-31 renal was > 100 µM in each case.

As to `CNC(=S)N(C)C(=S)Nn1c(=O)c(C)nn(C)c1=S`, the TGI in the experiment on OVCAR-4 ovarian, in the experiment on 786-0 renal, in the experiment on KM12 colon, in the experiment with COLO 205 colon and in the experiment with SK-MEL-28 melanoma was > 100 µM in each case.

Regarding `COc1cc(C[S+]2CCCC2)c(SC)cc1C[S+]1CCCC1`, the TGI in the experiment with SK-OV-3 ovarian, with OVCAR-4 ovarian, with OVCAR-3 ovarian, in the experiment with CAKI-1 renal, with 786-0 renal and in the experiment on KM12 colon was > 100 µM each time. Besides, the TGI with COLO 205 colon, in the experiment with SK-MEL-28 melanoma and with UO-31 renal was > 100 µM in each case.

As to `CC(=O)OC1CCC2(C)C3CCC4(C)C(c5ccc(=O)oc5)CC5OC54C3CCC2(O)C1` (configuration not stated), the TGI turned out to be 10.2 µM in the experiment with SK-OV-3 ovarian; 5.61 µM with OVCAR-4 ovarian; 2.29 µM in the experiment on OVCAR-3 ovarian; 2.23 µM in the experiment on CAKI-1 renal; 14.8 µM in the experiment on MCF7 breast; 10.7 µM in the experiment with KM12 colon. The TGI in the experiment with COLO 205 colon stood at 10.3 µM; in the experiment with SK-MEL-28 melanoma, 21.7 µM; in the experiment on UO-31 renal it was 9.38 µM.

As to `COc1ccc(C2CC(c3cccc(Nc4ccncc4)c3)=NN2c2cc(Cl)cc(Cl)c2)cc1` (configuration not stated), the GI50 with SK-OV-3 ovarian is 11.3 µM; in the experiment with OVCAR-4 ovarian it was 1.67 µM; with OVCAR-3 ovarian, 1.81 µM; with CAKI-1 renal, 1.62 µM; in the experiment on MCF7 breast it was 1.67 µM; in the experiment with KM12 colon, 1.77 µM. The GI50 in the experiment with SK-MEL-28 melanoma was 1.74 µM; in the experiment with UO-31 renal, 1.36 µM. Also, the TGI in the experiment with SK-OV-3 ovarian amounted to 31.4 µM; with OVCAR-4 ovarian, 3.12 µM; with OVCAR-3 ovarian, 3.35 µM; with CAKI-1 renal, 3.1 µM; in the experiment on MCF7 breast, 3.3 µM; with KM12 colon it was 3.3 µM. For the same compound, the TGI with SK-MEL-28 melanoma is 3.36 µM; in the experiment on UO-31 renal it was 2.74 µM.
